Data set [1] concerns abdominal skin of male hairless mice. As to conditions: for Permeability (%) of the permeated whole amino acids: male, hairless, mouse, 24 h, 1 % by weight. On the procedure:
The skin sample was attached to a Keshany-Chien type diffusion cell. A 1 ml portion of each test liquid (described later) was added to the donor phase, and its upper side was sealed with Para Film. A 0.01 mol/l phosphate buffered saline (Wako Pure Chemical Industries) was added to the receptor phase, stirred and incubated at 32° C., and amounts of amino acids were determined by an HPLC method 24 hours later to calculate permeation ratio.
Using an HPLC amino acid analysis system of Shimadzu Corp. (Prominence), the determination was carried out by a post column fluorescence detection method which uses OPA (ortho-phthalaldehyde) as a reaction reagent.

For data set [2], the system named is Human normal epidermal keratinocytes. As to the kind of experiment: Amino acid deficient medium culturing test. Format: cell-based. As to conditions: for growth of human epidermal keratinocytes in deficient medium: medium deficient in the named amino acid; for Relative ratio: number of cells, named amino acid reduced to 10% by weight of general MCDB 153 medium concentration, 5 days culture, non-deficient medium = 100. Here is the method:
Human normal epidermal keratinocytes (Sanko Junyaku) were used as the cells. […] The cells were pre-cultured at 37° C., under an atmosphere of 5% (v/v) CO2 until they became a semi-confluent state.
The keratinocytes cultured under a growing state in a T 75 flask were used. After removing the medium by suction, 5 ml of 0.25% trypsin solution was added thereto and incubated at room temperature for 10 minutes. A 10 ml portion of the medium was added thereto, and the cells were peeled off and recovered by pipetting. The thus obtained cell suspension was centrifuged at 1,000 rpm for 5 minutes, and the supernatant was discarded. The thus obtained cell pellet was suspended in 10 ml of the medium and centrifuged at 1,000 rpm for 5 minutes, and the supernatant was discarded. The thus obtained cell pellet was again suspended in 10 ml of the medium and centrifuged at 1,000 rpm for 5 minutes, and the supernatant was discarded. The thus obtained cell pellet was suspended in 2 ml of the medium, and the number of cells was counted.
As growth factors, 50 mg/l of BPE (bovine pituitary gland extract), 5 mg/l of insulin, 0.1 mM ethanolamine, 0.1 mM phosphoethanolamine and 0.00001 mg EGF ([…]) were added thereto. The aforementioned cells were mixed with 1 ml of this medium at a density of 3×10^4 cells, inoculated onto a 24 well plate and cultured at 37° C. for 5 days under an atmosphere of 5% (v/v) CO2, and then the number of cells was counted.

In data set [1], `N[C@@H](CS)C(=O)O` [Cysteine] gave a Permeability of each amino acid of 14.7%. Besides, in data set [2], the “growth of human epidermal keratinocytes in deficient medium” value (from here on “growth of human epidermal keratinocytes”) is “growth was suppressed” and the Relative ratio is on record as 9.

For `CSCC[C@H](N)C(=O)O` [Methionine], the Permeability of each amino acid in data set [1] stood at 7.4%. Also, in data set [2], the Relative ratio stood at 12.

In turn, `C[C@H](N)C(=O)O` [Alanine] showed a Permeability of each amino acid in data set [1] of 8.4%. In data set [2], the Relative ratio was determined as 14.

As for `NCC(=O)O` [Glycine], in data set [1], the Permeability of each amino acid turned out to be 14.3%. Moreover, in data set [2], the “growth of human epidermal keratinocytes” value is given as “growth was suppressed” and the Relative ratio is listed as 9.

As to `C[C@@H](O)[C@H](N)C(=O)O` [Threonine], the Permeability of each amino acid in data set [1] is 19.3%. In data set [2], the “growth of human epidermal keratinocytes” value is “growth was suppressed” and the Relative ratio is listed as 8.

`N[C@@H](CO)C(=O)O` [Serine] came in with a Permeability of each amino acid in data set [1] of 15.2%. Also, in data set [2], the “growth of human epidermal keratinocytes” value is recorded as “growth was suppressed” and the Relative ratio was 6.

Compound `NC(=O)C[C@H](N)C(=O)O` [Asparagine] had a Permeability of each amino acid in data set [1] of 14.2%. Further, the Relative ratio in data set [2] was determined as 13.

Regarding `O=C(O)[C@@H]1CCCN1` [Proline], the Permeability of each amino acid in data set [1] was determined as 7.9%. The Relative ratio in data set [2] is 13.

Take `OC[C@H]1OC(O)[C@H](O)[C@@H](O)[C@@H]1O` (stereo partly shown) [Glucose]: the “Permeability (%) of the permeated whole amino acids” value in data set [1] is on record as 9.6%.

Take `NC(=O)CC[C@H](N)C(=O)O` [Glutamine]: the Permeability of each amino acid in data set [1] amounted to 10.2%. Moreover, the Relative ratio in data set [2] is 16.

With `N[C@@H](CC(=O)O)C(=O)O` [Aspartic acid], the Permeability of each amino acid in data set [1] came to 19.1%. Besides, in data set [2], the “growth of human epidermal keratinocytes” value is on record as “growth was suppressed” and the Relative ratio is listed as 6.

Take `N[C@@H](Cc1ccc(O)cc1)C(=O)O` [Tyrosine]: the “growth of human epidermal keratinocytes” value in data set [2] was “growth was suppressed”.

In data set [1], `CC[C@H](C)[C@H](N)C(=O)O` [Isoleucine] displayed a Permeability of each amino acid of 20.8%. Moreover, in data set [2], the “growth of human epidermal keratinocytes” value was “growth was suppressed” and the Relative ratio is recorded as 7.

`OC[C@H]1O[C@H](O[C@H]2O[C@H](CO)[C@@H](O)[C@H](O)[C@H]2O)[C@H](O)[C@@H](O)[C@@H]1O` [Trehalose]: the “Permeability (%) of the permeated whole amino acids” value in data set [1] was 7.2%.

For the compound `N[C@@H](Cc1ccccc1)C(=O)O` [Phenylalanine], the Permeability of each amino acid in data set [1] amounted to 15.1%. For the same compound, in data set [2], the “growth of human epidermal keratinocytes” value is on record as “growth was suppressed” and the Relative ratio is 4.

`N[C@@H](CCC(=O)O)C(=O)O` [Glutamic acid]: in data set [2], the Relative ratio is 15.

In data set [1], `CC(C)[C@H](N)C(=O)O` [Valine] displayed a Permeability of each amino acid of 14.9%. In data set [2], the “growth of human epidermal keratinocytes” value is listed as “growth was suppressed” and the Relative ratio came out at 9.

As to `N=C(N)NCCC[C@H](N)C(=O)O` [Arginine], the Permeability of each amino acid in data set [1] worked out at 18.1%. Also, in data set [2], the “growth of human epidermal keratinocytes” value is recorded as “growth was suppressed” and the Relative ratio is 8.

With `N[C@@H](Cc1c[nH]cn1)C(=O)O` [Histidine], the Permeability of each amino acid in data set [1] amounted to 15.2%. In data set [2], the “growth of human epidermal keratinocytes” value is listed as “growth was suppressed” and the Relative ratio was 7.

As for `N[C@@H](Cc1c[nH]c2ccccc12)C(=O)O` [Tryptophan], in data set [1], the Permeability of each amino acid was determined as 3.6%. For the same compound, in data set [2], the Relative ratio came out at 15.

`CC(C)C[C@H](N)C(=O)O` [Leucine]: the Permeability of each amino acid in data set [1] worked out at 21.3%. In data set [2], the “growth of human epidermal keratinocytes” value is “growth was suppressed” and the Relative ratio was found to be 6.

`NCCCC[C@H](N)C(=O)O` [Lysine] came in with a Permeability of each amino acid in data set [1] of 19.6%. Besides, in data set [2], the “growth of human epidermal keratinocytes” value is recorded as “growth was suppressed” and the Relative ratio turned out to be 9.

For the origin of these results see US20080058400A1, “Skin external preparation” (FUJIFILM CORPORATION, priority 2006, published 2008).
